System: human osteosarcoma Saos-2 cells
Assay: Cytotoxicity, CCK-8 bioassay
Assay type: cell-based
Conditions: read-out: IC50, cytotoxicity, 72 h incubation, CCK-8, concentrations as hydrazone-bound DOX content, mean ± SEM of three experiments

COc1cccc2c1C(=O)c1c(O)c3c(c(O)c1C2=O)C[C@@](O)(C(=O)CO)C[C@@H]3O[C@H]1C[C@H](N)[C@H](O)[C@H](C)O1 [Free DOX, Doxorubicin]
IC50: 0.077 ± 0.009 µM
